Test results from PubChem BioAssay (NCI).
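These data come from cells grown in 96-well plates and exposed to compound for 48 hours at five concentrations. TGI: total growth inhibition.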

System: RXF-631 renal
Assay: growth of human tumour cells (NCI), 48 h

SMILES: COc1ccccc1CC(C)N (configuration not stated)
- TGI: > 100 µM

SMILES: COc1ccc(-c2nc3c(nc2-c2ccc(OC)cc2)C(N)=NS(=O)(=O)N3)cc1
- TGI: > 100 µM
